Data set [1] deals with Trypanosoma cruzi. The data set can be described thus: Antitrypanosomal activity against epimastigote stage of Trypanosoma cruzi Y assessed as parasite growth inhibition at 10 ug/mL after 72 hrs by spectrophotometric analysis relative to control. It counts as functional. Particulars: read-out: GI.
In data set [2] the test system is Trypanosoma cruzi. The data set can be described thus: Antitrypanosomal activity against epimastigote stage of Trypanosoma cruzi Y assessed as parasite growth inhibition at 20 ug/mL after 72 hrs by spectrophotometric analysis relative to control. In kind it is functional. Particulars: read-out: GI.
Data set [3] has as its system Trypanosoma cruzi. As to the kind of experiment: Antitrypanosomal activity against epimastigote stage of Trypanosoma cruzi Y assessed as parasite growth inhibition at 50 ug/mL after 72 hrs by spectrophotometric analysis relative to control. In kind it is functional. Particulars: read-out: GI.
The nature of data set [4]: Genotoxicity in human bronchial epithelial cells assessed as increase of micronucleated cells at 50 ug/mL after 24 hrs by acridine orange staining-based fluorescence microscopic analysis. As to conditions: epithelial cell. It counts as toxicity.

Consider `O=C(N/N=C/c1ccc2c(c1)no[n+]2[O-])c1ccc(Cl)cc1Cl`, for which the inhibition of growth at 10 µg/mL with Trypanosoma cruzi [1] turned out to be 42%. In the data set on Trypanosoma cruzi [2], the inhibition of growth at 20 µg/mL turned out to be 72%. In the data set on Trypanosoma cruzi [3], the inhibition of growth at 50 µg/mL is 89%.
As for `NS(=O)(=O)c1ccc(C(=O)N/N=C/c2ccc3c(c2)no[n+]3[O-])cc1`, in the data set with Trypanosoma cruzi [1], the inhibition of growth at 10 µg/mL worked out at 5%. The inhibition of growth at 20 µg/mL in the data set with Trypanosoma cruzi [2] was found to be 9%. For the same molecule, the inhibition of growth at 50 µg/mL in the data set on Trypanosoma cruzi [3] amounted to 12%.
Take `O=C(N/N=C/c1ccc2c(c1)no[n+]2[O-])c1ccccc1`: in the data set on Trypanosoma cruzi [1], the inhibition of growth at 10 µg/mL turned out to be 46%. Besides, in the data set with Trypanosoma cruzi [2], the inhibition of growth at 20 µg/mL turned out to be 82%. For the same molecule, in the data set on Trypanosoma cruzi [3], the inhibition of growth at 50 µg/mL was determined as 95%. Further, the Activity entry in data set [4] is “Non-toxic”.
Take `CN(C)c1ccc(C(=O)N/N=C/c2ccc3c(c2)no[n+]3[O-])cc1`: the inhibition of growth at 10 µg/mL in the data set on Trypanosoma cruzi [1] amounted to 4%. Besides, the inhibition of growth at 20 µg/mL in the data set with Trypanosoma cruzi [2] is 7%. Also, in the data set with Trypanosoma cruzi [3], the inhibition of growth at 50 µg/mL is 10%.
Regarding `O=C(N/N=C/c1ccc2c(c1)no[n+]2[O-])c1ccc(Cl)cc1`, the inhibition of growth at 10 µg/mL in the data set with Trypanosoma cruzi [1] was 54%. Besides, the inhibition of growth at 20 µg/mL with Trypanosoma cruzi [2] turned out to be 83%. In the data set on Trypanosoma cruzi [3], the inhibition of growth at 50 µg/mL was determined as 62%. Also, the Activity entry in data set [4] is “Non-toxic”.
In the case of `O=C(N/N=C/c1ccc2c(c1)no[n+]2[O-])c1ccc(Cl)c(Cl)c1`, in the data set with Trypanosoma cruzi [1], the inhibition of growth at 10 µg/mL worked out at 51%. The inhibition of growth at 20 µg/mL with Trypanosoma cruzi [2] amounted to 81%. The inhibition of growth at 50 µg/mL in the data set on Trypanosoma cruzi [3] worked out at 75%.
On to `CCOc1ccc(C(=O)N/N=C/c2ccc3c(c2)no[n+]3[O-])cc1`, for which, in the data set on Trypanosoma cruzi [1], the inhibition of growth at 10 µg/mL is 32%. Also, the inhibition of growth at 20 µg/mL in the data set with Trypanosoma cruzi [2] was determined as 68%. In addition, the inhibition of growth at 50 µg/mL in the data set with Trypanosoma cruzi [3] turned out to be 66%.
With `O=C(Cn1ccnc1[N+](=O)[O-])NCc1ccccc1` [BENZNIDAZOLE], the inhibition of growth at 10 µg/mL in the data set with Trypanosoma cruzi [1] came out at 44%. Also, in the data set on Trypanosoma cruzi [2], the inhibition of growth at 20 µg/mL is 66%. Further, the inhibition of growth at 50 µg/mL in the data set with Trypanosoma cruzi [3] stood at 77%.
On to `O=C(N/N=C/c1ccc2c(c1)no[n+]2[O-])c1ccc(C(F)(F)F)cc1`, for which the inhibition of growth at 10 µg/mL in the data set on Trypanosoma cruzi [1] came to 65%. In the data set on Trypanosoma cruzi [2], the inhibition of growth at 20 µg/mL came to 86%. Further, in the data set on Trypanosoma cruzi [3], the inhibition of growth at 50 µg/mL came out at 82%. The Activity result in data set [4] is “Non-toxic”.
Consider `Nc1ccc(C(=O)N/N=C/c2ccc3c(c2)no[n+]3[O-])cc1`, for which the inhibition of growth at 10 µg/mL in the data set with Trypanosoma cruzi [1] was determined as 7%. In the data set on Trypanosoma cruzi [2], the inhibition of growth at 20 µg/mL worked out at 24%. In the data set on Trypanosoma cruzi [3], the inhibition of growth at 50 µg/mL came to 42%.
On the same counts, the results for `O=C(N/N=C/c1ccc2c(c1)no[n+]2[O-])c1ccc(O)cc1` are 0%, 3% and 47%.
Taken in the same sequence, the figures for `N#Cc1ccc(C(=O)N/N=C/c2ccc3c(c2)no[n+]3[O-])cc1` were 8%, 39% and 44%.
Take `CC(=O)c1ccc(C(=O)N/N=C/c2ccc3c(c2)no[n+]3[O-])cc1`: the inhibition of growth at 10 µg/mL in the data set on Trypanosoma cruzi [1] came to 14%. Besides, the inhibition of growth at 20 µg/mL in the data set with Trypanosoma cruzi [2] came to 34%. Moreover, the inhibition of growth at 50 µg/mL with Trypanosoma cruzi [3] was 83%.
Taken in the same sequence, the figures for `O=C(N/N=C/c1ccc2c(c1)no[n+]2[O-])c1ccc([N+](=O)[O-])c(C(F)(F)F)c1` were 54%, 82% and 82%.
On the same counts, the results for `O=C(N/N=C/c1ccc2c(c1)no[n+]2[O-])c1ccc([N+](=O)[O-])cc1` are 13%, 73% and 73%.
`CCc1ccc(C(=O)N/N=C/c2ccc3c(c2)no[n+]3[O-])cc1`: the inhibition of growth at 10 µg/mL in the data set with Trypanosoma cruzi [1] came to 47%. Further, the inhibition of growth at 20 µg/mL with Trypanosoma cruzi [2] came out at 76%. For the same molecule, in the data set on Trypanosoma cruzi [3], the inhibition of growth at 50 µg/mL worked out at 85%.
On to `O=C(N/N=C/c1ccc2c(c1)no[n+]2[O-])c1ccc(I)cc1`, for which the inhibition of growth at 10 µg/mL in the data set on Trypanosoma cruzi [1] turned out to be 54%. Moreover, the inhibition of growth at 20 µg/mL with Trypanosoma cruzi [2] stood at 81%. For the same molecule, in the data set with Trypanosoma cruzi [3], the inhibition of growth at 50 µg/mL stood at 60%.
As for `O=C(N/N=C/c1ccc2c(c1)no[n+]2[O-])c1ccc(Br)cc1`, the inhibition of growth at 10 µg/mL in the data set on Trypanosoma cruzi [1] was 44%. Further, the inhibition of growth at 20 µg/mL with Trypanosoma cruzi [2] came to 76%. Further, in the data set on Trypanosoma cruzi [3], the inhibition of growth at 50 µg/mL turned out to be 58%.
In the case of `COc1ccc(C(=O)N/N=C/c2ccc3c(c2)no[n+]3[O-])cc1`, in the data set on Trypanosoma cruzi [1], the inhibition of growth at 10 µg/mL came to 36%. In the data set with Trypanosoma cruzi [2], the inhibition of growth at 20 µg/mL is 69%. In addition, the inhibition of growth at 50 µg/mL in the data set with Trypanosoma cruzi [3] came to 76%.
On the same counts, the results for `O=C(N/N=C/c1ccc2c(c1)no[n+]2[O-])c1ccc(F)cc1` are 45%, 79% and 78%.
On to `Cc1ccc(C(=O)N/N=C/c2ccc3c(c2)no[n+]3[O-])cc1`, for which the inhibition of growth at 10 µg/mL in the data set on Trypanosoma cruzi [1] amounted to 34%. Besides, the inhibition of growth at 20 µg/mL with Trypanosoma cruzi [2] is 62%. Further, the inhibition of growth at 50 µg/mL in the data set on Trypanosoma cruzi [3] was found to be 76%.

These data come from ChEMBL document CHEMBL3217488, “Preliminary in vitro evaluation of N-(benzofuroxan-5-yl)methylene benzohydrazide derivatives as potential anti-Trypanosoma cruzi agents” (Medchemcomm, 2012).
